Data from patent publication US20100267561A1, “HERBICIDAL PYRIDAZINONE DERIVATIVES” (priority 2007, published 2010).

Key:
Experiment in all cases: Test B pre-/postemergence plant response
Format in all cases: in vivo
[1] = tested on: Italian ryegrass (Lolium multiflorum)
Outline: (§1)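 Visual scoring from 0 (no effect) to 100 (complete control) against untreated controls was done 13 to 15 days after greenhouse treatment. Chemicals were formulated in a surfactant-containing non-phytotoxic solvent and applied to soil preemergence or to 1- to 4-leaf (2-18 cm) plants postemergence.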

[2] = tested on: eastern black (E.B.) nightshade (Solanum ptycanthum); conditions: Preemergence
Outline: as §1

[3] = tested on: common (oilseed) sunflower (Helianthus annuus); conditions: Preemergence
Outline: as §1

[4] = tested on: pigweed (Amaranthus retroflexus)
Outline: as §1

[5] = tested on: corn (Zea mays)
Outline: as §1

[6] = tested on: goosegrass (Eleusine indica)
Outline: as §1

[7] = tested on: common ragweed (Ambrosia elation)
Outline: as §1

[8] = tested on: surinam grass (Brachiaria decumbens)
Outline: as §1

[9] = tested on: Russian thistle (Salsola iberica); conditions: Preemergence
Outline: as §1

[10] = tested on: yellow nutsedge (Cyperus esculentus)
Outline: as §1

[11] = tested on: green foxtail (Setaria viridis)
Outline: as §1

[12] = tested on: kochia (Kochia scoparia); conditions: for Kochia plant response rating: 8 g ai/ha
Outline: as §1

[13] = tested on: johnsongrass (Sorghum halepense)
Outline: as §1

[14] = tested on: giant foxtail (Setaria faberii)
Outline: as §1

[15] = 8 g ai/ha, postemergence, 0-100 scale
[16] = Postemergence, 16 g ai/ha, scale 0 to 100
[17] = Postemergence, 31 g ai/ha, scale 0 to 100, 0 no effect, 100 complete control
[18] = Postemergence, 62 g ai/ha, scale 0 to 100, 0 no effect, 100 complete control
[19] = Preemergence, 16 g ai/ha, scale 0 to 100 (0 no effect, 100 complete control)
[20] = Preemergence, 31 g ai/ha, 0 to 100 scale, 0 no effect, 100 complete control
[21] = Preemergence, 62 g ai/ha, scale 0 to 100
[22] = Preemergence, 8 g ai/ha, scale 0 to 100
[23] = 16 g ai/ha, scale 0 to 100 (0 no effect, 100 complete control)
[24] = 31 g ai/ha, 0 to 100 scale, 0 no effect, 100 complete control
[25] = Postemergence, 31 g ai/ha, scale 0 to 100
[26] = Preemergence, 31 g ai/ha, scale 0 to 100 (0 no effect, 100 complete control)
[27] = Preemergence, 16 g ai/ha, scale 0 to 100
[28] = 31 g ai/ha, scale 0 to 100 (0 no effect, 100 complete control)

Cc1cc(-c2ccc(Cl)cc2)nn1-c1c(OC(=O)c2ccccc2Cl)cnn(C)c1=O [Compound 38]
Ryegrass, Italian plant response rating [1, 15]: 10
Plant response rating, Ryegrass, Italian [1, 16]: 85
Plant response rating, Ryegrass, Italian [1, 17]: 85
Plant response rating, Ryegrass, Italian [1, 18]: 98
Plant response rating, Ryegrass, Italian [1, 19]: 80
Plant response rating, Ryegrass, Italian [1, 20]: 95
Plant response rating, Ryegrass, Italian [1, 21]: 100
Ryegrass, Italian plant response rating [1, 22]: 30
Plant response rating, Nightshade, E. B. [2, 23]: 0
Plant response rating, Nightshade, E. B. [2, 24]: 0
Plant response rating, Nightshade, E. B. ([2]; 62 g ai/ha, scale 0 to 100): 0
Nightshade, E. B. plant response rating ([2]; 8 g ai/ha, scale 0 to 100): 0
Plant response rating, Sunflower [3, 23]: 0
Plant response rating, Sunflower [3, 24]: 0
Plant response rating, Sunflower ([3]; 62 g ai/ha, scale 0 to 100): 0
Sunflower plant response rating ([3]; 8 g ai/ha, scale 0 to 100): 0
Pigweed plant response rating [4, 15]: 0
Plant response rating, Pigweed [4, 16]: 0
Plant response rating, Pigweed [4, 17]: 0
Plant response rating, Pigweed [4, 18]: 0
Plant response rating, Pigweed [4, 19]: 0
Plant response rating, Pigweed [4, 20]: 0
Plant response rating, Pigweed [4, 21]: 0
Pigweed plant response rating [4, 22]: 0
Corn plant response rating [5, 15]: 90
Plant response rating, Corn [5, 16]: 95
Plant response rating, Corn [5, 17]: 100
Plant response rating, Corn [5, 18]: 100
Plant response rating, Corn [5, 19]: 50
Plant response rating, Corn [5, 20]: 75
Plant response rating, Corn [5, 21]: 95
Corn plant response rating [5, 22]: 45
Goosegrass plant response rating [6, 15]: 100
Plant response rating, Goosegrass [6, 16]: 100
Plant response rating, Goosegrass [6, 17]: 100
Plant response rating, Goosegrass [6, 18]: 100
Plant response rating, Goosegrass [6, 19]: 85
Plant response rating, Goosegrass [6, 20]: 95
Plant response rating, Goosegrass [6, 21]: 95
Goosegrass plant response rating [6, 22]: 45
Ragweed plant response rating [7, 15]: 0
Plant response rating, Ragweed [7, 16]: 0
Plant response rating, Ragweed [7, 17]: 0
Plant response rating, Ragweed [7, 18]: 0
Plant response rating, Ragweed [7, 19]: 0
Plant response rating, Ragweed [7, 20]: 0
Plant response rating, Ragweed [7, 21]: 0
Ragweed plant response rating [7, 22]: 0
Surinam Grass plant response rating [8, 15]: 90
Plant response rating, Surinam Grass [8, 16]: 90
Plant response rating, Surinam Grass [8, 18]: 100
Plant response rating, Surinam Grass [8, 19]: 90
Plant response rating, Surinam Grass [8, 20]: 100
Plant response rating, Surinam Grass [8, 21]: 100
Surinam Grass plant response rating [8, 22]: 90
Plant response rating, Russian Thistle [9, 23]: 0
Plant response rating, Russian Thistle [9, 24]: 0
Plant response rating, Russian Thistle ([9]; 62 g ai/ha, scale 0 to 100): 0
Russian Thistle plant response rating ([9]; 8 g ai/ha, scale 0 to 100): 0
Nutsedge, Yellow plant response rating [10, 15]: 0
Plant response rating, Nutsedge, Yellow [10, 16]: 0
Plant response rating, Nutsedge, Yellow [10, 17]: 0
Plant response rating, Nutsedge, Yellow [10, 18]: 0
Plant response rating, Nutsedge, Yellow [10, 19]: 0
Plant response rating, Nutsedge, Yellow [10, 20]: 0
Plant response rating, Nutsedge, Yellow [10, 21]: 0
Nutsedge, Yellow plant response rating [10, 22]: 0
Foxtail, Green plant response rating [11, 15]: 30
Plant response rating, Foxtail, Green [11, 16]: 75
Plant response rating, Foxtail, Green [11, 17]: 80
Plant response rating, Foxtail, Green [11, 18]: 98
Plant response rating, Foxtail, Green [11, 19]: 100
Plant response rating, Foxtail, Green [11, 20]: 100
Plant response rating, Foxtail, Green [11, 21]: 100
Foxtail, Green plant response rating [11, 22]: 30
Kochia plant response rating ([12]; postemergence, 0-100 scale): 0
Plant response rating, Kochia [12, 16]: 0
Plant response rating, Kochia [12, 17]: 0
Plant response rating, Kochia [12, 18]: 0
Plant response rating, Kochia [12, 19]: 0
Kochia plant response rating ([12]; Preemergence, scale 0 to 100): 0
Johnsongrass plant response rating [13, 15]: 60
Plant response rating, Johnsongrass [13, 16]: 65
Plant response rating, Johnsongrass [13, 17]: 90
Plant response rating, Johnsongrass [13, 18]: 100
Plant response rating, Johnsongrass [13, 20]: 70
Plant response rating, Johnsongrass [13, 21]: 80
Johnsongrass plant response rating [13, 22]: 0
Foxtail, Giant plant response rating [14, 15]: 0
Plant response rating, Foxtail, Giant [14, 16]: 20
Plant response rating, Foxtail, Giant [14, 17]: 50
Plant response rating, Foxtail, Giant [14, 18]: 100
Plant response rating, Foxtail, Giant [14, 19]: 98
Plant response rating, Foxtail, Giant [14, 20]: 100
Plant response rating, Foxtail, Giant [14, 21]: 100
Foxtail, Giant plant response rating [14, 22]: 45

CCOC(=O)Oc1cnn(C)c(=O)c1-n1nc(-c2ccc(Cl)cc2)cc1C [Compound 53]
Ryegrass, Italian plant response rating [1, 15]: 85
Plant response rating, Ryegrass, Italian [1, 16]: 90
Plant response rating, Ryegrass, Italian [1, 25]: 100
Plant response rating, Ryegrass, Italian [1, 18]: 100
Plant response rating, Ryegrass, Italian [1, 26]: 100
Plant response rating, Ryegrass, Italian [1, 21]: 100
Ryegrass, Italian plant response rating [1, 22]: 80
Ryegrass, Italian plant response rating [1, 27]: 100
Plant response rating, Nightshade, E. B. [2, 28]: 15
Plant response rating, Nightshade, E. B. ([2]; 62 g ai/ha, scale 0 to 100): 20
Nightshade, E. B. plant response rating ([2]; 8 g ai/ha, scale 0 to 100): 0
Nightshade, E. B. plant response rating ([2]; 16 g ai/ha, scale 0 to 100): 0
Plant response rating, Sunflower [3, 28]: 0
Plant response rating, Sunflower ([3]; 62 g ai/ha, scale 0 to 100): 0
Sunflower plant response rating ([3]; 8 g ai/ha, scale 0 to 100): 0
Sunflower plant response rating ([3]; 16 g ai/ha, scale 0 to 100): 0
Pigweed plant response rating [4, 15]: 0
Plant response rating, Pigweed [4, 16]: 0
Plant response rating, Pigweed [4, 25]: 0
Plant response rating, Pigweed [4, 18]: 0
Plant response rating, Pigweed [4, 26]: 0
Plant response rating, Pigweed [4, 21]: 0
Pigweed plant response rating [4, 22]: 0
Pigweed plant response rating [4, 27]: 0
Corn plant response rating [5, 15]: 20
Plant response rating, Corn [5, 16]: 100
Plant response rating, Corn [5, 25]: 100
Plant response rating, Corn [5, 18]: 100
Plant response rating, Corn [5, 20]: 55
Plant response rating, Corn [5, 21]: 60
Corn plant response rating [5, 22]: 0
Corn plant response rating [5, 27]: 45
Goosegrass plant response rating [6, 15]: 20
Plant response rating, Goosegrass [6, 16]: 60
Plant response rating, Goosegrass [6, 25]: 65
Plant response rating, Goosegrass [6, 18]: 100
Plant response rating, Goosegrass [6, 20]: 0
Plant response rating, Goosegrass [6, 21]: 0
Goosegrass plant response rating [6, 22]: 0
Goosegrass plant response rating [6, 27]: 0
Ragweed plant response rating [7, 15]: 0
Plant response rating, Ragweed [7, 16]: 0
Plant response rating, Ragweed [7, 25]: 0
Plant response rating, Ragweed [7, 18]: 0
Plant response rating, Ragweed [7, 26]: 0
Plant response rating, Ragweed [7, 21]: 0
Ragweed plant response rating [7, 22]: 0
Ragweed plant response rating [7, 27]: 0
Surinam Grass plant response rating [8, 15]: 75
Plant response rating, Surinam Grass [8, 16]: 98
Plant response rating, Surinam Grass [8, 25]: 100
Plant response rating, Surinam Grass [8, 18]: 100
Plant response rating, Surinam Grass [8, 26]: 60
Plant response rating, Surinam Grass ([8]; Preemergence, 62 g ai/ha, 0 to 100 scale, 0 no effect, 100 complete control): 95
Surinam Grass plant response rating [8, 22]: 0
Surinam Grass plant response rating [8, 27]: 20
Plant response rating, Russian Thistle [9, 28]: 0
Plant response rating, Russian Thistle ([9]; 62 g ai/ha, scale 0 to 100): 0
Russian Thistle plant response rating ([9]; 8 g ai/ha, scale 0 to 100): 0
Russian Thistle plant response rating ([9]; 16 g ai/ha, scale 0 to 100): 0
Nutsedge, Yellow plant response rating [10, 15]: 0
Plant response rating, Nutsedge, Yellow [10, 16]: 0
Plant response rating, Nutsedge, Yellow [10, 25]: 0
Plant response rating, Nutsedge, Yellow [10, 18]: 0
Plant response rating, Nutsedge, Yellow [10, 26]: 0
Plant response rating, Nutsedge, Yellow [10, 21]: 0
Nutsedge, Yellow plant response rating [10, 22]: 0
Nutsedge, Yellow plant response rating [10, 27]: 0
Foxtail, Green plant response rating [11, 15]: 95
Plant response rating, Foxtail, Green [11, 16]: 95
Plant response rating, Foxtail, Green [11, 25]: 100
Plant response rating, Foxtail, Green [11, 18]: 100
Plant response rating, Foxtail, Green [11, 20]: 100
Plant response rating, Foxtail, Green [11, 21]: 100
Foxtail, Green plant response rating [11, 22]: 95
Foxtail, Green plant response rating [11, 27]: 100
Kochia plant response rating ([12]; postemergence, 0-100 scale): 0
Plant response rating, Kochia [12, 16]: 0
Plant response rating, Kochia [12, 25]: 0
Plant response rating, Kochia [12, 18]: 0
Plant response rating, Kochia [12, 20]: 0
Johnsongrass plant response rating [13, 15]: 35
Plant response rating, Johnsongrass [13, 16]: 70
Plant response rating, Johnsongrass [13, 25]: 98
Plant response rating, Johnsongrass [13, 18]: 100
Plant response rating, Johnsongrass [13, 20]: 75
Plant response rating, Johnsongrass [13, 21]: 100
Johnsongrass plant response rating [13, 22]: 45
Johnsongrass plant response rating [13, 27]: 65
Foxtail, Giant plant response rating [14, 15]: 85
Plant response rating, Foxtail, Giant [14, 16]: 95
Plant response rating, Foxtail, Giant [14, 25]: 100
Plant response rating, Foxtail, Giant [14, 18]: 100
Plant response rating, Foxtail, Giant [14, 20]: 45
Plant response rating, Foxtail, Giant [14, 21]: 70
Foxtail, Giant plant response rating [14, 22]: 0
Foxtail, Giant plant response rating [14, 27]: 20
